*1 amine or outer side, *2 acyl side, *3 side chain or, on linkers, in order; H or OH if unused. Where a SMILES comes first, the peptide text is derived from it. [ ]: non-standard residue; d: D form. The star is where a group is joined. ξ: configuration not given here. X11 = O=C([C@H](CC1CCCCC1)N(CCCc1ccccc1)[*:1])[*:2]; X13 = O=C([C@H](CC1CCCCC1)N(CCc1ccccc1)[*:1])[*:2]; d(hhPhe) = N[C@H](CCCc1ccccc1)C(=O)O; Cha = N[C@@H](CC1CCCCC1)C(=O)O; ξhhPhe = NC(CCCc1ccccc1)C(=O)O; 3Amb = NCc1cccc(C(=O)O)c1; X8 = c1ccc(CCC*)cc1; Ahx = NCCCCCC(=O)O
Target: T1, C5a receptor (Homo sapiens, UniProt P21730)
T1 construct: from tissue; host or cells: polymorphonuclear leukocyte (PMNL) membrane fragments
T1 sequence (P21730 1-350): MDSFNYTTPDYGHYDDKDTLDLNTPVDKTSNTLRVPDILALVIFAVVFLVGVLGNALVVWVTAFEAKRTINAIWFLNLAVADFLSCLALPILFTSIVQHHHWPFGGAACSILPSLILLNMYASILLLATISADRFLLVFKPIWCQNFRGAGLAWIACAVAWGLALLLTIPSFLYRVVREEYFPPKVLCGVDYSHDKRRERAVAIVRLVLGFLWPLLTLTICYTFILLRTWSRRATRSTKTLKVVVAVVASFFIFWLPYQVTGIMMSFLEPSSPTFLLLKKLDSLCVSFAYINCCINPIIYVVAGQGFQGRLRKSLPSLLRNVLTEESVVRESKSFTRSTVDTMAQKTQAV
Test: Anaphylatoxin (C5a) receptor binding Ki determination, 125I-C5a on PMNL membrane fragments
Details: read-out: Ki (In vitro C5a Receptor Binding Potency)
Procedure: The membrane-bound radiolabeled C5a was separated from the free radiolabeled C5a by filtration, and the recovered gamma radioactivity was measured. […] Free and membrane-bound ligand were separated by filtration.

| Structure (SMILES) | Ki |
| --- | --- |
| CC(C)C[C@H](NC(=O)[C@H](C)NC(=O)[C@H](CC1CCCCC1)NC(=O)[C@@H]1CCCN1C(=O)[C@H](CCCCN)NC(=O)CN)C(=O)N[C@H](CSCCCc1ccccc1)C(=O)N[C@@H](CCCNC(=N)N)C(=O)O [Example 22, H-Glycyl-Lysyl-Prolyl-{(2S)-2-Amino-3-cyclohexylpropanoyl}-Alanyl-Leucyl-DCysteinyl(S-3-phenylpropyl)-Arginyl-OH] (H-GKP[Cha]AL[dC](X8)R-OH) | 4.7 µM |
| CC(C)C[C@H](NC(=O)CNC(=O)[C@H](CC1CCCCC1)NCCc1ccccc1)C(=O)N[C@H](CCCc1ccccc1)C(=O)N[C@@H](CCCNC(=N)N)C(=O)O [Example 78, N-(2-Phenethyl)-{(2S)-2-Amino-3-cyclohexylpropanoyl}-Glycyl-Leucyl-{(R)-2-Amino-5-phenylpentanoyl}-Arginyl-OH] (H-[X13]GL[d(hhPhe)]R-OH) | 0.07 µM |
| CC(C)C[C@H](NC(=O)CNC(=O)C=C1CNc2ccccc21)C(=O)N[C@H](CCCc1ccccc1)C(=O)N[C@@H](CCCNC(=N)N)C(=O)O (single isomer, unassigned) [Example 65] | 0.3 µM |
| CC(C)C[C@H](NC(=O)[C@H](CC1CCCCC1)NC(=O)CCCCCN)C(=O)NC(CCCc1ccccc1)C(=O)N[C@@H](CCCNC(=N)N)C(=O)O (single isomer, unassigned) [Example 87] | 5.8 µM |
| CC(C)C[C@H](NC(=O)CNC(=O)[C@H](CC1CCCCC1)NCCCc1ccccc1)C(=O)N[C@H](CCCc1ccccc1)C(=O)N[C@@H](CCCNC(=N)N)C(=O)O [Example 77, N-(3-Phenylpropyl)-{(2S)-2-Amino-3-cyclohexylpropanoyl}-Glycyl-Leucyl-{(R)-2-Amino-5-phenylpentanoyl}-Arginyl-OH] (H-[X11]GL[d(hhPhe)]R-OH) | 0.05 µM |
| CC(C)C[C@H](NC(=O)CNC(=O)[C@H](CC1CCCCC1)NC(=O)CN(C)C(=O)CCCN)C(=O)NC(CCCc1ccccc1)C(=O)N[C@@H](CCCNC(=N)N)C(=O)O (mixture of isomers) [Example 113, N-(gamma-Aminobutyryl)-Sarcrosinyl-{(2S)-2-Amino-3-cyclohexyl-propanoyl}-Glycyl-Leucyl-{(R/S)-2-Amino-5-phenylpentanoyl}-Arginyl-OH] | 0.87 µM |
| CC(C)C[C@@H](NC(=O)CNC(=O)[C@H](CC1CCCCC1)NC(=O)CCCCCN)C(=O)NC(CCCc1ccccc1)C(=O)N[C@@H](CCCNC(=N)N)C(=O)O (single isomer, unassigned) [Example 99] | 4.8 µM |
| CC(C)C[C@H](NC(=O)CNC(=O)[C@H](CC1CCCCC1)NC(=O)[C@@H](N)CCCCN)C(=O)NC(CCCc1ccccc1)C(=O)N[C@@H](CCCNC(=N)N)C(=O)O (single isomer, unassigned) [Example 41, H-Lysyl-{(2S)-2-Amino-3-cyclohexylpropanoyl}-Glycyl-Leucyl-{(R/S)-2-Amino-5-phenylpentanoyl}-Arginyl-OH] | 25.4 µM |
| CC(C)C[C@H](NC(=O)CNC(=O)[C@H](CC1CCCCC1)NC(=O)CN)C(=O)NC(CCCc1ccccc1)C(=O)N[C@@H](CCCNC(=N)N)C(=O)O (single isomer, unassigned) [Example 72] | 4.27 µM |
| CN[C@@H](Cc1ccccc1)C(=O)N[C@@H](CCCCN)C(=O)N1CCC[C@H]1C(=O)N[C@@H](CC1CCCCC1)C(=O)N[C@@H](C)C(=O)N[C@@H](CC(C)C)C(=O)NC(CCCc1ccccc1)C(=O)N[C@@H](CCCNC(=N)N)C(=O)O (single isomer, unassigned) [Example 128] | 0.027 µM |
| CC(C)C[C@H](NC(=O)[C@H](C)NC(=O)[C@H](CC1CCCCC1)NC(=O)[C@@H]1CCCN1C(=O)[C@H](CCCCN)NC(=O)CN)C(=O)NC(CCCc1ccccc1)C(=O)N[C@@H](CCCNC(=N)N)C(=O)O (single isomer, unassigned) [Example 52] | 10.3 µM |
| CC(C)C[C@H](NC(=O)CNC(=O)[C@H](CC1CCCCC1)NC(=O)NCc1cccc(CN)c1)C(=O)NC(CCCc1ccccc1)C(=O)N[C@@H](CCCNC(=N)N)C(=O)O (single isomer, unassigned) [Example 141] | 16 µM |
| CC(C)C[C@H](NC(=O)[C@H](CC1CCCCC1)NC(=O)CCCCCN)C(=O)NC(CCCc1ccccc1)C(=O)N[C@@H](CCCNC(=N)N)C(=O)O (single isomer, unassigned) [Example 86, N-(6-Aminohexanoyl)-{(25)-2-Amino-3-cyclohexylpropanoyl}-Leucyl-{(R/S)-2-Amino-5-phenylpentanoyl}-Arginyl-OH] | 44.8 µM |
| CC(C)C[C@@H](NC(=O)CNC(=O)[C@H](CC1CCCCC1)NC(=O)CCCCCN)C(=O)NC(CCCc1ccccc1)C(=O)N[C@@H](CCCNC(=N)N)C(=O)O (single isomer, unassigned) [Example 100] | 60 µM |
| CC(C)C[C@H](NC(=O)CNC(=O)[C@H](CC1CCCCC1)NC(=O)CCN)C(=O)NC(CCCc1ccccc1)C(=O)N[C@@H](CCCNC(=N)N)C(=O)O (single isomer, unassigned) [Example 85] | 2 µM |
| CC(C)C[C@H](NC(=O)[C@@H]1CCCN1C(=O)[C@H](CC1CCCCC1)NC(=O)CCCCCN)C(=O)NC(CCCc1ccccc1)C(=O)N[C@@H](CCCNC(=N)N)C(=O)O (mixture of isomers) [Example 11, N-(6-Aminohexanoyl)-{(2S)-2Amino-3-cyclohexylpropanoyl}-Prolyl-Leucyl-{(R/S)-2-Amino-5-phenylpentanoyl}-Arginyl-OH] | 3.6 µM |
| N=C(N)NCCC[C@H](NC(=O)C(CCCc1ccccc1)NC(=O)c1cccc(CNC(=O)[C@H](CC2CCCCC2)NC(=O)[C@@H]2CCCN2C(=O)CCCCCN)c1)C(=O)O (stereo partly drawn) [Example 109, N-(6-Aminohexanoyl)-Prolyl-{(2S)-2-Amino-3-cyclohexylpropanoyl}-(3-Aminomethylbenzoyl)-{(+)-2-Amino-5-phenylpentanoyl}-Arginyl-OH] (H-[Ahx]P[Cha][3Amb][ξhhPhe]R-OH) | 4.8 µM |
| CC(C)C[C@H](NC(=O)CNC(=O)[C@H](CC1CCCCC1)NC(=O)CN)C(=O)NC(CCCc1ccccc1)C(=O)N[C@@H](CCCNC(=N)N)C(=O)O (single isomer, unassigned) [Example 73] | 1.99 µM |
| CC(C)C[C@H](NC(=O)CNC(=O)[C@H](CC1CCCCC1)NC(=O)CCN)C(=O)NC(CCCc1ccccc1)C(=O)N[C@@H](CCCNC(=N)N)C(=O)O (single isomer, unassigned) [Example 84] | 3.9 µM |

— patent US5663148A, “Anaphylatoxin receptor ligands containing lipophilic residues” (Abbott Laboratories, priority 1994, dated 1997)
